Molecular target: T1, human NOX4 (Homo sapiens, UniProt Q9NPH5)
T1 construct: expressed in transfected cells; membrane fraction used
T1 sequence (Q9NPH5 1-578): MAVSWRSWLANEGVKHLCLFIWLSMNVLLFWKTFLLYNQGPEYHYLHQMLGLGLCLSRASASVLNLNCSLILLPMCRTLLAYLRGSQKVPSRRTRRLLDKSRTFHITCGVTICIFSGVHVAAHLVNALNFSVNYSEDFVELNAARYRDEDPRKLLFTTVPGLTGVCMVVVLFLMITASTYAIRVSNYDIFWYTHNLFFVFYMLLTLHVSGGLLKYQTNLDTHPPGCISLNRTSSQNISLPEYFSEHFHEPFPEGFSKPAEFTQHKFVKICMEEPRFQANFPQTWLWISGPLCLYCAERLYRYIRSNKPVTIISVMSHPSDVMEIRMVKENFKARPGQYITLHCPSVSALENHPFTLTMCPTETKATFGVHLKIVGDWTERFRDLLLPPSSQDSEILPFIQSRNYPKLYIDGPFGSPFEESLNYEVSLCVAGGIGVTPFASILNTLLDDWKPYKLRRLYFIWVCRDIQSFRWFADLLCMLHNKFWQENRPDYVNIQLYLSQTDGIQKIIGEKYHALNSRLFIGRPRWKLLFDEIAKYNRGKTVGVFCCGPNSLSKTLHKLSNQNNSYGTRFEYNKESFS
T1 sequence (P13498 1-195 partner): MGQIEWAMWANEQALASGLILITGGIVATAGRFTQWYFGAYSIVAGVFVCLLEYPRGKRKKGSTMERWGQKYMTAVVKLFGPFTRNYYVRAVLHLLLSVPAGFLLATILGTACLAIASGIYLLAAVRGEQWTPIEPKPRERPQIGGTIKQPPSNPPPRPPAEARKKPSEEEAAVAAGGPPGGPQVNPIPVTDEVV
Experiment: Cell free membrane based in vitro NOX4 assay: H2O2 production by membranes expressing human NOX4, measured with Amplex Red
Type: biochemical
Details: for inhibition at 1 µM: 1.0 μM compound, read-out: Percentage inhibition at 1.0 μM; for inhibition at 10 µM: 10.0 μM compound, read-out: Percentage inhibition at 10.0 μM; for IC50: class symbols
In short: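 Membranes from HEK cells stably overexpressing human NOX4 were preincubated 20 min with inhibitor in pH 7.4 HEPES buffer containing HRP and Amplex Red, then NADPH was added. H2O2 was followed for 10 min by fluorescence (ex 544/em 590 nm). IC50 from nonlinear regression of % maximal uninhibited response.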

Structure (SMILES) | inhibition at 1 µM [%] | inhibition at 10 µM [%] | IC50 [nM]
Cc1nn(CCN2CCN(C)CC2)c2[nH]c(-c3ccccc3Cl)c(O)c(=O)c12 [Example 155, 6-(2-chlorophenyl)-5-hydroxy-3-methyl-1-(2-(4-methylpiperazin-1-yl)ethyl)-1H-pyrazolo[3,4-b]pyridin-4(7H)-one] | 100 | 93.3 | < 50
CCc1nn(CCN2CCOCC2)c2[nH]c(-c3c(F)cccc3F)c(O)c(=O)c12 [Example 156, 6-(2,6-difluorophenyl)-3-ethyl-5-hydroxy-1-(2-morpholinoethyl)-1H-pyrazolo[3,4-b]pyridin-4(7H)-one] | 97.4 | 100 | < 50
CCc1nn(CCn2cccn2)c2[nH]c(-c3ccccc3Cl)c(O)c(=O)c12 [Example 157, 1-(2-(1H-pyrazol-1-yl)ethyl)-6-(2-chlorophenyl)-3-ethyl-5-hydroxy-1H-pyrazolo[3,4-b]pyridin-4(7H)-one] | 95.2 | 98.6 | 50 to 100
CCc1nn(CCn2cccn2)c2[nH]c(-c3c(F)cccc3F)c(O)c(=O)c12 [Example 158, 1-(2-(1H-pyrazol-1-yl)ethyl)-6-(2,6-difluorophenyl)-3-ethyl-5-hydroxy-1H-pyrazolo[3,4-b]pyridin-4(7H)-one] | 100 | 100 | < 50
CCc1nn(C)c2[nH]c(-c3ccc(F)c(C(F)(F)F)c3)c(O)c(=O)c12 [Example 159, 3-Ethyl-6-(4-fluoro-3-(trifluoromethyl)phenyl)-5-hydroxy-1-methyl-1H-pyrazolo[3,4-b]pyridine-4(7H)-one] | 71.9 |  | > 150
CCc1nn(C)c2[nH]c(-c3cccc(C(F)(F)F)c3F)c(O)c(=O)c12 [Example 160, 3-Ethyl-6-(2-fluoro-3-(trifluoromethyl)phenyl)-5-hydroxy-1-methyl-1H-pyrazolo[3,4-b]pyridine-4(7H)-one] | 80.7 | 68.9 | > 150
CCc1nn(C)c2[nH]c(-c3ccc(F)cc3F)c(O)c(=O)c12 [Example 161, 6-(2,4-Difluorophenyl)-3-ethyl-5-hydroxy-1-methyl-1H-pyrazolo[3,4-b]pyridin-4(7H)-one] | 71.6 |  | > 150
CCc1nn(C)c2[nH]c(-c3cc(F)cc(F)c3)c(O)c(=O)c12 [Example 162, 6-(3,5-Difluorophenyl)-3-ethyl-5-hydroxy-1-methyl-1H-pyrazolo[3,4-b]pyridine-4(7H)-one] | 74.8 |  | > 150
CCc1nn(C)c2[nH]c(-c3cc(F)ccc3F)c(O)c(=O)c12 [Example 163, 6-(2,5-Difluorophenyl)-3-ethyl-5-hydroxy-1-methyl-1H-pyrazolo[3,4-b]pyridine-4(7H)-one] | 72.8 |  | > 150
CCc1nn(CCN2CCOCC2)c2[nH]c(-c3cccc(C(F)(F)F)c3F)c(O)c(=O)c12 [Example 164, 3-Ethyl-6-(2-fluoro-3-(trifluoromethyl)phenyl)-5-hydroxy-1-(2-morpholinoethyl)-1H-pyrazolo[3,4-b]pyridin-4(7H)-one] |  |  | > 150
CCc1nn(CCN2CCN(C)CC2)c2[nH]c(-c3ccccc3Cl)c(O)c(=O)c12 [Example 165, 6-(2-Chlorophenyl)-3-ethyl-5-hydroxy-1-(2-(4-methylpiperazin-1-yl)ethyl)-1H-pyrazolo[3,4-b]pyridine-4(7H)-one] | 99.9 | 80.1 | < 50
CCc1nn(CCN2CCN(C)CC2)c2[nH]c(-c3c(F)cccc3F)c(O)c(=O)c12 [Example 166, 6-(2,6-Difluorophenyl)-3-ethyl-5-hydroxy-1-(2-(4-methylpiperazin-1-yl)ethyl)-1H-pyrazolo[3,4-b]pyridine-4(7H)-one] | 96.4 | 95.5 | < 50
CCc1nn(CCN2CCOCC2=O)c2[nH]c(-c3ccccc3Cl)c(O)c(=O)c12 [Example 167, 4-(2-(6-(2-Chlorophenyl)-3-ethyl-5-hydroxy-4-oxo-4,7-dihydro-1H-pyrazolo[3,4-b]pyridin-1-yl)ethyl)morpholin-3-one] | 86 | 71.8 | 50 to 100
CCc1nn(CCN2CCOCC2=O)c2[nH]c(-c3c(F)cccc3F)c(O)c(=O)c12 [Example 168, 4-(2-(6-(2,6-Difluorophenyl)-3-ethyl-5-hydroxy-4-oxo-4,7-dihydro-1H-pyrazolo[3,4-b]pyridin-1-yl)ethyl)morpholin-3-one] | 94.9 | 93.5 | 50 to 100

Next, values leading:

inhibition at 1 µM [%] | inhibition at 10 µM [%] | IC50 [nM] | Structure (SMILES)
83.7 |  | 50 to 100 | Cc1nn(CCN2CCN(C)CC2)c2[nH]c(-c3c(F)cccc3F)c(O)c(=O)c12 [Example 169, 6-(2,6-Difluorophenyl)-5-hydroxy-3-methyl-1-(2-(4-methylpiperazin-1-yl)ethyl)-1H-pyrazolo[3,4-b]pyridin-4(7H)-one]
74.4 |  | > 150 | CCCn1nc(CC)c2c(=O)c(O)c(-c3ccc(F)cc3F)[nH]c21 [Example 170, 6-(2,4-Difluorophenyl)-3-ethyl-5-hydroxy-1-propyl-1H-pyrazolo[3,4-b]pyridin-4(7H)-one]
80.9 |  | > 150 | CCc1nn(CCN2CCN(CC)CC2)c2[nH]c(-c3c(F)cccc3F)c(O)c(=O)c12 [Example 172, 6-(2,6-Difluorophenyl)-3-ethyl-1-(2-(4-ethylpiperazin-1-yl)ethyl)-5-hydroxy-1H-pyrazolo[3,4-b]pyridin-4(7H)-one]
76.1 | 69.7 | > 150 | CCc1nn(CCN2CCN(CC)CC2)c2[nH]c(-c3ccccc3Cl)c(O)c(=O)c12 [Example 173, 6-(2-Chlorophenyl)-3-ethyl-1-(2-(4-ethylpiperazin-1-yl)ethyl)-5-hydroxy-1H-pyrazolo[3,4-b]pyridin-4(7H)-one]
85.6 |  | 100 to 150 | CCc1nn(CCCN2CCOCC2)c2[nH]c(-c3cccc(C(F)(F)F)c3F)c(O)c(=O)c12 [Example 174, 3-Ethyl-6-(2-fluoro-3-(trifluoromethyl)phenyl)-5-hydroxy-1-(3-morpholinopropyl)-1H-pyrazolo[3,4-b]pyridin-4(7H)-one]
84 | 81.3 | 100 to 150 | CCc1nn(CCCN2CCOCC2)c2[nH]c(-c3c(F)cccc3F)c(O)c(=O)c12 [Example 175, 6-(2,6-Difluorophenyl)-3-ethyl-5-hydroxy-1-(3-morpholinopropyl)-1H-pyrazolo[3,4-b]pyridin-4(7H)-one]
81.3 |  | > 150 | CCc1nn(CCCN2CCOCC2)c2[nH]c(-c3ccc(F)cc3F)c(O)c(=O)c12 [Example 176, 6-(2,4-Difluorophenyl)-3-ethyl-5-hydroxy-1-(3-morpholinopropyl)-1H-pyrazolo[3,4-b]pyridin-4(7H)-one]
68.6 | 50.1 | > 150 | Cc1nn(CCN2CCNCC2)c2[nH]c(-c3ccccc3Cl)c(O)c(=O)c12 [Example 177, 6-(2-Chlorophenyl)-5-hydroxy-3-methyl-1-(2-(piperazin-1-yl)ethyl)-1H-pyrazolo[3,4-b]pyridin-4(7H)-one]
89 |  | > 150 | Cc1nn(CCN2CCN(C)CC2)c2[nH]c(-c3cccc(C(F)(F)F)c3F)c(O)c(=O)c12 [Example 178, 6-(2-fluoro-3-(trifluoromethyl)phenyl)-5-hydroxy-3-methyl-1-(2-(4-methylpiperazin-1-yl)ethyl)-1H-pyrazolo[3,4-b]pyridin-4(7H)-one]
92.3 |  | 100 to 150 | CCc1nn(CCN2CCN(C)CC2)c2[nH]c(-c3cccc(C(F)(F)F)c3F)c(O)c(=O)c12 [Example 179, 3-Ethyl-6-(2-fluoro-3-(trifluoromethyl)phenyl)-5-hydroxy-1-(2-(4-methylpiperazin-1-yl)ethyl)-1H-pyrazolo[3,4-b]pyridin-4(7H)-one]
100 | 100 | < 50 | CCc1nn(CCC(C)C)c2[nH]c(-c3c(F)cccc3F)c(O)c(=O)c12 [Example 180, 6-(2,6-Difluorophenyl)-3-ethyl-5-hydroxy-1-isopentyl-1H-pyrazolo[3,4-b]pyridin-4(7H)-one]
100 | 100 | 50 to 100 | CCc1nn(CCC(C)C)c2[nH]c(-c3ccccc3Cl)c(O)c(=O)c12 [Example 181, 6-(2-Chlorophenyl)-3-ethyl-5-hydroxy-1-isopentyl-1H-pyrazolo[3,4-b]pyridin-4(7H)-one]

— US20200247800A1, “SUBSTITUTED BICYCLIC HETEROCYCLIC COMPOUNDS AS NADPH OXIDASE INHIBITORS” (Glenmark Pharmaceuticals S.A., priority 2017, published 2020)
